Data as given in patent US5618813A, “Benzo[5.6]pyrano[2.3.4-ij]quinolizine and benzo[5.6]thiopyrano[2.3.4-ij]quinolizine derivatives as antibacterial and antineoplastic agents” (Abbott Laboratories, priority 1995, dated 1997).
Values after ≈ are worked out from the molar mass of the structure shown. Where a name gives a salt, the structure may show the parent alone. Read-outs that look alike come from different tables or passages of the source.

Experiments:
Assay in all cases: In vitro antibacterial activity (MIC, agar dilution)
Type in all cases: cell-based
[1] = tested on: Acinetobacter calcoaceticus CMX 669; settings: CMX669; Acinetobacter calcoaceticus CMX 669; agar dilution; read-out: MIC
Method: (§1) Each plate was inoculated with 1:100 (or 1:10 for slow-growing strains, primarily Micrococcus and Streptococcus) dilutions of up to 32 different microorganisms, using a Steers replicator block calibrated to deliver approximately 10^4 colony forming units (CFUs). The inoculated plates were incubated at from about 35° C. to about 37° C. for approximately 20-24 hours. In o addition, a control plate using BHI agar containing no test compound was prepared and incubated at the beginning and at the end of each test. The quinolone antibacterial ciprofloxacin was used as a control ("Cntl").
(§2) The MIC was defined as the lowest concentration of test compound yielding no growth (a slight haze or sparsely isolated colonies at the inoculum spot) as compared to the growth control containing no test compound.

E. coli DC-2 = settings: Escherichia coli, DC2; E. coli DC-2; agar dilution; read-out: MIC
Method: as §1, §2

E. coli H560 = settings: Escherichia coli; E. coli H560; agar dilution; read-out: MIC
Method: as §1, §2

E. coli KNK 437 = settings: Escherichia coli, KNK437; E. coli KNK 437; agar dilution; read-out: MIC
Method: as §1, §2

E. coli SS = settings: Escherichia coli; E. coli SS; agar dilution; read-out: MIC
Method: as §1, §2

[2] = tested on: Enter. aerogenes ATCC 13048; settings: Klebsiella aerogenes, ATCC13048
Method: as §1, §2

[3] = tested on: Entero. faecium ATCC 8043; settings: Enterococcus faecium, ATCC8043; Entero. faecium ATCC 8043; agar dilution; read-out: MIC
Method: as §1, §2

Escherichia coli Juhl = tested on: Escherichia coli Juhl
Method: as §1, §2

[4] = tested on: Klebsiella pneumoniae ATCC 8045; settings: ATCC8045
Method: as §1, §2

M. luteus ATCC 4698 = settings: Micrococcus luteus, ATCC4698; M. luteus ATCC 4698; agar dilution; read-out: MIC
Method: as §1, §2

M. luteus ATCC 9341 = settings: Micrococcus luteus, ATCC9341; M. luteus ATCC 9341; agar dilution; read-out: MIC
Method: as §1, §2

P. aeruginosa 2862 = settings: Pseudomonas aeruginosa; P. aeruginosa 2862; agar dilution; read-out: MIC
Method: as §1, §2

P. aeruginosa 5263 = settings: Pseudomonas aeruginosa; P. aeruginosa 5263; agar dilution; read-out: MIC
Method: as §1, §2

P. aeruginosa A5007 = settings: Pseudomonas aeruginosa; P. aeruginosa A5007; agar dilution; read-out: MIC
Method: as §1, §2

P. aeruginosa BMH 10 = settings: Pseudomonas aeruginosa, BMH10; P. aeruginosa BMH 10; agar dilution; read-out: MIC
Method: as §1, §2

P. aeruginosa K799/61 = settings: Pseudomonas aeruginosa
Method: as §1, §2

P. aeruginosa K799/WT = settings: Pseudomonas aeruginosa; P. aeruginosa K799/WT; agar dilution; read-out: MIC
Method: as §1, §2

[5] = tested on: Providencia stuartii CMX 640; settings: CMX640
Method: as §1, §2

Pseudomonas cepacia 296I = settings: Burkholderia cepacia
Method: as §1, §2

[6] = tested on: Staph. aureus 1775 Cipro.R.; settings: Staphylococcus aureus
Method: as §1, §2

Staph. aureus 5278 = settings: Staphylococcus aureus
Method: as §1, §2

Staph. aureus 642A = settings: Staphylococcus aureus
Method: as §1, §2

Staph. aureus A5177 = settings: Staphylococcus aureus
Method: as §1, §2

Staph. aureus ATCC 6538P = settings: Staphylococcus aureus, ATCC6538P
Method: as §1, §2

Staph. aureus CMX 553 = settings: Staphylococcus aureus, CMX553
Method: as §1, §2

Staph. aureus NCTC10649 = settings: Staphylococcus aureus
Method: as §1, §2

Staph. epidermidis 3519 = settings: Staphylococcus epidermidis
Method: as §1, §2

[7] = tested on: Strep. agalactiae CMX 508; settings: Streptococcus agalactiae, CMX508
Method: as §1, §2

Strep. bovis A5169 = settings: Streptococcus equinus; Strep. bovis A5169; agar dilution; read-out: MIC
Method: as §1, §2

[8] = tested on: Strep. pyogenes 2458 INDUC; settings: Streptococcus pyogenes
Method: as §1, §2

[9] = tested on: Strep. pyogenes 930 CONST; settings: Streptococcus pyogenes
Method: as §1, §2

Strep. pyogenes EES61 = settings: Streptococcus pyogenes
Method: as §1, §2

Candida albicans CCH 442 = settings: CCH442; Candida albicans CCH 442; agar dilution; read-out: MIC
Method: as §1, §2

Myco. smegmatis ATCC 114 = settings: Mycolicibacterium smegmatis, ATCC114
Method: as §1, §2

[10] = tested on: Nocardia asteroides ATCC 9970; settings: ATCC9970; Nocardia asteroides ATCC 9970; agar dilution; read-out: MIC
Method: as §1, §2

SMILES | MIC [1] [µg/mL] | MIC (E. coli DC-2) [µg/mL] | MIC (E. coli H560) [µg/mL] | MIC (E. coli KNK 437) [µg/mL] | MIC (E. coli SS) [µg/mL] | MIC [2] [µg/mL] | MIC [3] [µg/mL] | MIC (Escherichia coli Juhl) [µg/mL] | MIC (M. luteus ATCC 4698) [µg/mL] | MIC (M. luteus ATCC 9341) [µg/mL] | MIC (P. aeruginosa 2862) [µg/mL] | MIC (P. aeruginosa 5263) [µg/mL] | MIC (P. aeruginosa A5007) [µg/mL] | MIC (P. aeruginosa BMH 10) [µg/mL] | MIC (P. aeruginosa K799/61) [µg/mL] | MIC (P. aeruginosa K799/WT) [µg/mL] | MIC [5] [µg/mL] | MIC (Pseudomonas cepacia 296I) [µg/mL] | MIC [6] [µg/mL] | MIC (Staph. aureus 5278) [µg/mL] | also measured
O=C(O)c1cc2c3c(c(N4CCOCC4)c(F)cn3c1=O)Oc1ccccc1-2 [Example 1, 1-(1-morpholinyl)-2-fluoro-5H-5-oxo-benzo[5.6]pyrano[2,3.4-ij]quinolizine-6-carboxylic acid] | 1.56 (≈ 4.08 µM) | > 100 | > 100 | 50 (≈ 131 µM) | 0.39 (≈ 1.02 µM) | > 100 | 25 (≈ 65.4 µM) | > 100 | 0.39 (≈ 1.02 µM) | 1.56 (≈ 4.08 µM) | > 100 | > 100 | > 100 | > 100 | 12.5 (≈ 32.7 µM) | > 100 | > 100 | 100 (≈ 262 µM) | 1.56 (≈ 4.08 µM) | 0.78 (≈ 2.04 µM) | MIC ([4]; Klebsiella pneumoniae): 12.5 µg/mL (≈ 32.7 µM); MIC (Staph. aureus 642A): 0.78 µg/mL (≈ 2.04 µM); MIC (Staph. aureus A5177): 0.78 µg/mL (≈ 2.04 µM); MIC (Staph. aureus ATCC 6538P): 0.78 µg/mL (≈ 2.04 µM); MIC (Staph. aureus CMX 553): 0.78 µg/mL (≈ 2.04 µM); MIC (Staph. aureus NCTC10649): 0.39 µg/mL (≈ 1.02 µM); MIC (Staph. epidermidis 3519): 0.39 µg/mL (≈ 1.02 µM); MIC [7]: 3.1 µg/mL (≈ 8.11 µM); MIC (Strep. bovis A5169): 25 µg/mL (≈ 65.4 µM); MIC [8]: 6.2 µg/mL (≈ 16.2 µM); MIC [9]: 6.2 µg/mL (≈ 16.2 µM); MIC (Strep. pyogenes EES61): 3.1 µg/mL (≈ 8.11 µM)
NC1CCN(c2c(F)cn3c(=O)c(C(=O)O)cc4c3c2Oc2ccccc2-4)C1 (stereo not shown) [Example 2, 1-(3-amino-pyrrolidinyl)-2-fluoro-5H-5-oxo-benzo[5,6]pyrano[2.3.4-ij]quinolizine-6-carboxylic acid hydrochloride] | 6.2 | 12.5 | 3.1 | 3.1 | 0.78 | 6.2 | 6.2 | 3.1 | 3.1 | 3.1 | > 100 | > 100 | 100 | 25 | 6.2 | 50 | > 100 | > 100 | 6.2 | 6.2 | MIC (Candida albicans CCH 442): > 100 µg/mL; MIC ([4]; Klebsiella pneumoniae ATCC 8045, agar dilution, read-out: MIC): 1.56 µg/mL; MIC (Myco. smegmatis ATCC 114): 3.1 µg/mL; MIC [10]: 3.1 µg/mL; MIC (Staph. aureus 642A): 6.2 µg/mL; MIC (Staph. aureus A5177): 6.2 µg/mL; MIC (Staph. aureus ATCC 6538P): 6.2 µg/mL; MIC (Staph. aureus CMX 553): 6.2 µg/mL; MIC (Staph. aureus NCTC10649): 3.1 µg/mL; MIC (Staph. epidermidis 3519): 3.1 µg/mL; MIC [7]: 3.1 µg/mL; MIC (Strep. bovis A5169): 3.1 µg/mL; MIC [8]: 3.1 µg/mL; MIC [9]: 3.1 µg/mL; MIC (Strep. pyogenes EES61): 3.1 µg/mL
